# From patent US20260231945A1, “NEMATICIDAL COMPOUNDS, THEIR COMPOSITION AND USE THEREOF” (priority 2023, published 2026)
# Assays:
# [1] = system: Root-knot nematodes Meloidogyne spp. juveniles (J2); experiment: whole plant or invertebrate; format: in vivo; conditions: 70-100 J2 juveniles, 22±2° C., 70±5% RH, dead/inactive counted at 24, 48, 72 and 96 hours (time of rating not stated); for mortality at 500 ppm: Meloidogyne; for % Mortality Rating: 500 ppm
# Method: The compound to be tested (4 mg) was dissolved in 40 μl of DMSO to make 100,000 PPM concentration stock solution. […] The nematode suspension (250 μl) having 70-100 juveniles (J2) of Root-knot nematodes Meloidogyne spp. pipetted out to each cell of 24 well bioassay plate. Sterile water (1 ml) was pipetted out in fresh 2.5 ml Eppendorf micro-centrifuge tubes. The desired concentration (500 ppm) of the compound was prepared by adding stock solution in 2.5 ml Eppendorf micro-centrifuge tubes. For each treatment 4 replications were maintained. The bioassay plates were incubated at 22±2° C. and 70±5% RH in humidity chambers.
# [2] = Stability studies: storage at room temperature and under accelerated storage condition (ATS), purity estimated by HPLC; format: physicochemical; conditions: properly packed material; for purity estimated by HPLC, Day 14 Condition 54° C. ± 2° C. / purity estimated by HPLC, Day Zero Condition 54° C. ± 2° C.: 54° C. ± 2° C. (accelerated storage)
# Description: The properly packed material was subjected to the conditions mentioned in the table below (Table 5).
SMILES,mortality at 500 ppm [1] [%],% Mortality Rating [1],also measured
"N=C(N)NCCC[C@H](/N=C/C=C/c1ccccc1O)C(=O)O [Example 1, (E)-N^2-[(2E)-3-(2-hydroxyphenyl)prop-2-en-1-ylidene]-L-arginine]",70 to 100,–,–
"N=C(N)NCCC[C@H](/N=C/C=C/c1ccc(F)cc1O)C(=O)O [Example 2, (E)-N^2-[(2E)-3-(4-fluoro-2-hydroxyphenyl)prop-2-en-1-ylidene]-L-arginine]",50 to 69,–,–
"N=C(N)NCCC[C@H](/N=C/C=C/c1c(O)cccc1F)C(=O)O [Example 3, (E)-N^2-[(2E)-3-(6-fluoro-2-hydroxyphenyl)prop-2-en-1-ylidene]-L-arginine]",50 to 69,–,"purity estimated by HPLC, Day 14 Condition 25° C. ± 2° C. [2]: 98.80; purity estimated by HPLC, Day 14 Condition 54° C. ± 2° C. [2]: 98.79; purity estimated by HPLC, Day Zero Condition 25° C. ± 2° C. [2]: 99.23; purity estimated by HPLC, Day Zero Condition 54° C. ± 2° C. [2]: 99.10"
"N=C(N)NCCC[C@H](/N=C/C=C/c1ccc(Cl)cc1O)C(=O)O [Example 4, (E)-N^2-[(2E)-3-(4-chloro-2-hydroxyphenyl)prop-2-en-1-ylidene]-L-arginine]",50 to 69,–,–
"COc1ccc(O)c(/C=C/C=N/[C@@H](CCCNC(=N)N)C(=O)O)c1 [Example 5, (E)-N^2-[(2E)-3-(2-hydroxy-5-methoxyphenyl)prop-2-en-1-ylidene]-L-arginine]",50 to 69,–,–
"COc1ccccc1/C=C/C=N/[C@@H](CCCNC(=N)N)C(=O)O [Example 6, (E)-N^2-[(2E)-3-(2-methoxyphenyl)prop-2-en-1-ylidene]-L-arginine]",70 to 100,–,–
"COc1ccc(/C=C/C=N/[C@@H](CCCNC(=N)N)C(=O)O)cc1 [Example 7, (E)-N^2-[(2E)-3-(4-methoxyphenyl)prop-2-en-1-ylidene]-L-arginine]",70 to 100,–,–
"COc1cc(/C=C/C=N/[C@@H](CCCNC(=N)N)C(=O)O)ccc1OC(C)=O [Example 8, (E)-N^2-{(2E)-3-[4-(acetyloxy)-3-methoxyphenyl]prop-2-en-1-ylidene}-L-arginine]",0 to 49,–,–
"N=C(N)NCCC[C@H](/N=C/C=C/c1ccccc1)C(=O)O [Example 9, (E)-N^2-[(2E)-3-phenylprop-2-en-1-ylidene]-L-arginine]",70 to 100,–,"purity estimated by HPLC, Day 14 Condition 25° C. ± 2° C. [2]: 99.59; purity estimated by HPLC, Day 14 Condition 54° C. ± 2° C. [2]: 99.64; purity estimated by HPLC, Day Zero Condition 25° C. ± 2° C. [2]: 99.60; purity estimated by HPLC, Day Zero Condition 54° C. ± 2° C. [2]: 99.63"
"CC(/C=N/[C@@H](CCCNC(=N)N)C(=O)O)=C\c1ccccc1 [Example 10, (E)-N^2-[(2E)-2-methyl-3-phenylprop-2-en-1-ylidene]-L-arginine]",70 to 100,–,–
"CCC(/C=N/[C@@H](CCCNC(=N)N)C(=O)O)=C\c1ccccc1 [Example 11, (E)-N^2-[(2E)-2-benzylidenebutylidene]-L-arginine]",70 to 100,–,–
"CCCCCC(/C=N/[C@@H](CCCNC(=N)N)C(=O)O)=C\c1ccccc1 [Example 12, (E)-N^2-[(2E)-2-benzylideneheptylidene]-L-arginine]",0 to 49,–,–
"CCCCCCC(/C=N/[C@@H](CCCNC(=N)N)C(=O)O)=C\c1ccccc1 [Example 13, (E)-N^2-[(2E)-2-benzylideneoctylidene]-L-arginine]",0 to 49,–,–
"N=C(N)NCCC[C@H](/N=C/C=C/c1ccco1)C(=O)O [Example 14, (E)-N^2-[(2E)-3-(furan-2-yl)prop-2-en-1-ylidene]-L-arginine]",70 to 100,–,–
"CC(/C=N/[C@@H](CCCNC(=N)N)C(=O)O)=C\c1ccco1 [Example 15, (E)-N^2-[(2E)-3-(furan-2-yl)-2-methylprop-2-en-1-ylidene]-L-arginine]",50 to 69,–,–
"CCC(/C=N/[C@@H](CCCNC(=N)N)C(=O)O)=C\c1ccco1 [Example 16, (E)-N^2-{(2E)-2-[(furan-2-yl)methylidene]butylidene}-L-arginine]",0 to 49,–,–
"COc1cc(/C=C/C=N/[C@@H](CCCNC(=N)N)C(=O)O)ccc1O [Example 17, (E)-N^2-[(2E)-3-(4-hydroxy-3-methoxyphenyl)prop-2-en-1-ylidene]-L-arginine]",70 to 100,–,–
"CC(=O)Oc1ccc(/C=C/C=N/[C@@H](CCCNC(=N)N)C(=O)O)cc1 [Example 18, (E)-N^2-{(2E)-3-[4-(acetyloxy)phenyl]prop-2-en-1-ylidene}-L-arginine]",70 to 100,–,–
"N=C(N)NCCC[C@H](/N=C/C=C/c1ccccc1OC(=O)c1ccccc1)C(=O)O [Example 19, (E)-N^2-{(2E)-3-[2-(benzoyloxy)phenyl]prop-2-en-1-ylidene}-L-arginine]",0 to 49,–,–

SMILES,mortality at 500 ppm [1] [%],% Mortality Rating [1],also measured
"N=C(N)NCCC[C@H](/N=C/C=C/c1ccsc1)C(=O)O [Example 21, (E)-N^2-[(2E)-3-(thiophen-3-yl)prop-2-en-1-ylidene]-L-arginine]",70 to 100,–,–
"N=C(N)NCCC[C@H](/N=C/C=C/c1nc2ccccc2s1)C(=O)O [Example 22, (E)-N^2-[(2E)-3-(1,3-benzothiazol-2-yl)prop-2-en-1-ylidene]-L-arginine]",70 to 100,–,–
"N=C(N)NCCC[C@H](/N=C/C=C/c1nccs1)C(=O)O [Example 23, (E)-N^2-[(2E)-3-(1,3-thiazol-2-yl)prop-2-en-1-ylidene]-L-arginine]",50 to 69,–,–
"Cc1ccc(/C=C/C=N/[C@@H](CCCNC(=N)N)C(=O)O)cc1 [Example 25, (E)-N^2-[(2E)-3-(4-methylphenyl)prop-2-en-1-ylidene]-L-arginine]",70 to 100,–,–
N=C(N)NCCCC(N=CC=Cc1ccc(C(F)(F)F)cc1)C(=O)O (stereo not shown) [Example 28],–,B (50-69),–
CC(C=NC(CCCNC(=N)N)C(=O)O)=Cc1ccc(C(F)(F)F)cc1 (stereo not shown) [Example 29],–,B (50-69),–
N=C(N)NCCCC(N=CC=Cc1ccccc1C(F)(F)F)C(=O)O (stereo not shown) [Example 30],–,B (50-69),–
CCC(C=NC(CCCNC(=N)N)C(=O)O)=Cc1ccccc1OC(F)(F)F (stereo not shown) [Example 31],–,C (0 to 49),–
CCOc1ccc(C=CC=NC(CCCNC(=N)N)C(=O)O)cc1 (stereo not shown) [Example 33],–,C (0 to 49),–
C=CCc1ccc(C=CC=NC(CCCNC(=N)N)C(=O)O)cc1 (stereo not shown) [Example 34],–,B (50-69),–
C=CCc1ccc(C=CC=NC(CCCNC(=N)N)C(=O)O)c(O)c1 (stereo not shown) [Example 35],–,B (50-69),–
C=CCc1cccc(C=CC=NC(CCCNC(=N)N)C(=O)O)c1O (stereo not shown) [Example 36],–,A (70-100),–
C=CCc1cccc(C=CC=NC(CCCNC(=N)N)C(=O)O)c1OC (stereo not shown) [Example 37],–,B (50-69),–
C=CCc1ccc(C=CC=NC(CCCNC(=N)N)C(=O)O)c(OC)c1 (stereo not shown) [Example 38],–,B (50-69),–
N=C(N)NCCCC(N=CC=Cc1ccccn1)C(=O)O (stereo not shown) [Example 40],–,A (70-100),–
N=C(N)NCCCC(N=CC=Cc1ccncc1)C(=O)O (stereo not shown) [Example 42],–,A (70-100),–
N=C(N)NCCCC(N=CC=Cc1ccncn1)C(=O)O (stereo not shown) [Example 43],–,A (70-100),–
N=C(N)NCCCC(N=CC=Cc1cnccn1)C(=O)O (stereo not shown) [Example 44],–,B (50-69),–
N=C(N)NCCCC(N=CC=Cc1cccnn1)C(=O)O (stereo not shown) [Example 45],–,C (0 to 49),–

SMILES,mortality at 500 ppm [1] [%],% Mortality Rating [1],also measured
CC(C=NC(CCCNC(=N)N)C(=O)O)=Cc1cccs1 (stereo not shown) [Example 46],–,B (50-69),–
CCC(C=NC(CCCNC(=N)N)C(=O)O)=Cc1cccs1 (stereo not shown) [Example 47],–,B (50-69),–
CCC(C=NC(CCCNC(=N)N)C(=O)O)=Cc1cscn1 (stereo not shown) [Example 48],–,B (50-69),–
N=C(N)NCCCC(N=CC=Cc1ccn[nH]1)C(=O)O (stereo not shown) [Example 50],–,B (50-69),–
N=C(N)NCCCC(N=CC=Cc1cnc[nH]1)C(=O)O (stereo not shown) [Example 51],–,B (50-69),–
N=C(N)NCCCC(N=CC=Cc1ncc[nH]1)C(=O)O (stereo not shown) [Example 52],–,B (50-69),–
N=C(N)NCCCC(N=CC=Cc1ncco1)C(=O)O (stereo not shown) [Example 53],–,C (0 to 49),–
N=C(N)NCCCC(N=CC=Cc1ccc[nH]1)C(=O)O (stereo not shown) [Example 54],–,B (50-69),–
N=C(N)NCCCC(N=CC=Cc1nc2ccccc2[nH]1)C(=O)O (stereo not shown) [Example 55],–,C (0 to 49),–
N=C(N)NCCCC(N=CC=Cc1ccc2scnc2c1)C(=O)O (stereo not shown) [Example 57],–,A (70-100),–
N=C(N)NCCCC(N=CC=Cc1ccc2cc[nH]c2c1)C(=O)O (stereo not shown) [Example 58],–,A (70-100),–
N=C(N)NCCCC(N=CC=Cc1ccc2c[nH]cc2c1)C(=O)O (stereo not shown) [Example 59],–,A (70-100),–
N=C(N)NCCCC(N=CC=Cc1ccc2c[nH]cc2c1Cl)C(=O)O (stereo not shown) [Example 60],–,B (50-69),–
COc1c(C=CC=NC(CCCNC(=N)N)C(=O)O)ccc2[nH]cnc12 (stereo not shown) [Example 61],–,C (0 to 49),–
N=C(N)NCCCC(N=CC=Cc1ccc2ccoc2c1)C(=O)O (stereo not shown) [Example 62],–,B (50-69),–
N=C(N)NCCCC(N=CC=Cc1cc2ccccc2o1)C(=O)O (stereo not shown) [Example 63],–,A (70-100),–
N=C(N)NCCCC(N=CC=Cc1coc2ccccc12)C(=O)O (stereo not shown) [Example 64],–,B (50-69),–
N=C(N)NCCCC(N=CC=Cc1nc2ccccc2o1)C(=O)O (stereo not shown) [Example 65],–,B (50-69),–
